Holding throughout (type): in vivo, C57BL/6 mice
Assay [1] concerns aged, male, bleomycin-treated mice. The assay can be described thus: Wet lung weight (edema), Example 1. Conditions: FIG. 6, day 21, compared to BLM-treated mice; SDX-7320 8 mg/kg SC Q4D; nintedanib 50 mg/kg PO QD; pirfenidone 100 mg/kg PO BID. On the procedure:
(§1) Treatment: seven groups of mice were treated as put forth in Table A. Mice in groups 2-7 were challenged with bleomycin solution on Day 0 of the study by a single oropharyngeal installation of bleomycin solution such that the mice were given 1.5 U/kg based on the average body weight of the animals. On day 6 of the study, all mice were randomized based on body weight loss plus their PenH value (see below) as measured on Day 6.
Mice in treatment groups 1 and 2 were administered a vehicle control subcutaneously once every 4 days (Q4D) from day 7 to day 21. Mice in treatment group 3 were administered SDX-7320 subcutaneously Q4D from day 7 to day 21 at a dose of 8 mg/kg (i.e., 4 doses). Mice in treatment group 4 were administered pirfenidone orally (PO) twice a day (BID) from day 7 to day 21 at a dose of 100 mg/kg. Mice in treatment group 5 were administered nintedanib orally (PO) once a day (QD) from day 7 to day 21 at a dose of 50 mg/kg. […]
Lung weight: Lungs were harvested, and the wet lung weights (signifying edema) were recorded.
Statistical Analysis: All parameters were analyzed in the same manner and results were expressed as means±SEM with Graph Pad Prism Software version 8.0 (San Diego, CA, USA). […]

For assay [2] the test system is unchanged. Nature of the assay: Respiratory function by whole-body plethysmography (PenH, respiratory rate), Example 1. The following applies: FIG. 3, day 20 post BLM; SDX-7320 8 mg/kg SC Q4D; nintedanib 50 mg/kg PO QD; pirfenidone 100 mg/kg PO BID.
Protocol: Animals: Aged, male C57BL/6 mice from Jackson Laboratories, 72 weeks old at the time of randomization were used in this study.
Mice in treatment groups 1 and 2 were administered a vehicle control subcutaneously once every 4 days (Q4D) from day 7 to day 21. […]
Respiratory Function: Respiratory function of the mice were measured using plethysmography. […] After the acclimatization period, the baseline functional respiratory parameters were measured by the whole-body plethysmograph (VivoFlow by SCIREQ) on Day 6 (before treatment introduction and process to the randomization), Days 13 and 20, post-BLM administration. […] The functional respiratory parameters analyzed include respiratory rate and PenH (pulmonary congestion index). […]
For assay [3] the test system is unchanged. Nature of the assay: Automated histopathological analysis of lung samples, Example 1. How it is done: as §1
Mice in treatment groups 1 and 2 were administered a vehicle control subcutaneously once every 4 days (Q4D) from day 7 to day 21. Mice in treatment group 3 were administered SDX-7320 subcutaneously Q4D from day 7 to day 21 at a dose of 8 mg/kg (i.e., 4 doses). Mice in treatment group 4 were administered pirfenidone orally (PO) twice a day (BID) from day 7 to day 21 at a dose of 100 mg/kg. […]
Histopathological Analysis: Automatic quantification of morphological features of pulmonary fibrosis were performed using MorphoQuant™ (Biocellvia, France), an automated AI-based digital pathology software for quantification, from the digitalized images (scans) of PSR-stained or antibody labeled lung sections. MorphoQuant™ uses principles of morphometric analysis to detect and quantify specific lung disease features from histological slides (Gilhodes et al. 2017; Michaudel, Fauconnier, et al. 2018). […]

Each structure is given as a SMILES string.

Regarding `COC(=O)c1ccc2c(c1)NC(=O)/C2=C(\Nc1ccc(N(C)C(=O)CN2CCN(C)CC2)cc1)c1ccccc1` [nintedanib, Methyl (Z)-3-[[[4-[N-methyl-2-(4-methylpiperazin-1-yl)acetamido]phenyl]amino](phenyl)methylene]-2-oxoindoline-6-carboxylate], the “lung weight (wet)” value in assay [1] was “did not significantly reduce lung weight”. Further, the “pulmonary congestion (PenH)” value in assay [2] is on record as “increased the pulmonary congestion”. For the same compound, the “deposition of collagen in lung tissue” value in assay [3] (FIG. 22 and Table C, COL1A1, following exposure to bleomycin, SDX-7320 8 mg/kg SC Q4D, nintedanib 50 mg/kg PO QD) is recorded as “almost no activity”. Also, the “COL1A1 area (%)” value in assay [3] (Table C/FIG. 22, aged male mice, bleomycin 1.5 U/kg oropharyngeal, treatment day 7 to 21, SDX 8 mg/kg SC Q4D, Nin 50 mg/kg PO QD, ab270993 antibody labeled) stood at 1.387 ± 1.638%.
As to `Cc1ccc(=O)n(-c2ccccc2)c1` [pirfenidone, 5-Methyl-1-phenyl-1H-pyridin-2-one], the “lung weight (wet)” value in assay [1] is recorded as “did not significantly reduce lung weight”.

Source of the values: patent US20260355144A1, “METAP2 INHIBITORS FOR THE TREATMENT OF PULMONARY FIBROSIS” (SynDevRx , Inc., priority 2022, published 2026).
